In US20140079836A1, “METHODS AND COMPOSITIONS FOR ALTERING HEALTH, WELLBEING, AND LIFESPAN” (LifeSpan Extension, LLC, priority 2008, published 2014):

Test system: entire human genome (gene expression profile)
Test: Agilent whole human genome array, skin fibroblasts AG07999, antioxidant with or without UV
Assay type: cell-based
Experimental: Cell cultures: A human skin fibroblast cell culture was obtained through the Coriell Cell Repository from the National Institute on Aging Cell Repository. […] Culture media: Cells were grown in Minimal Essential Medium supplemented with 10% fetal bovine serum, 2 mM L-glutamine, 2 mM Glutamax I. […] All cultures were incubated at 37° C. with 5% CO2 in a humidified chamber. […] On Day 5 after 24 hours of exposure to test conditions, the cells were isolated and the RNA isolated using the RT^2q PCR-grade RNA isolation kit (Superarray Bioscience Corporation). […] Analysis of Agilent Whole Human Genome Arrays: RNA taken from both samples was sent to Cogenics, Inc. Morrisville, N.C. Cogenics, Inc. is a leading, state-of-the-art, microarray service provider that facilitates and accelerates transcriptome profiling and gene discovery processes for industrial and academic researchers. Cogenics' procedure for processing samples is as follows: RNA samples are received and analyzed by Cogenics, Inc. using rigorous standardized procedures that are designed to ensure quality and chain of custody. Each sample undergoes a thorough quality analysis using an Agilent Bioanalyzer microfluidics device, and is precisely quantified using a Nanodrop-1000 spectro-photometer. When the Agilent Oligonucleotide Microarray Platform is utilized, samples are fluorescently labeled using the Agilent Low-Input Linear Amplification Kit. Upon completion of this process, the labeled cRNA products are assessed using the same processes described above. These labeled samples are then fragmented and hybridized to oligonucleotide microarrays. The microarrays are washed and then scanned using an Agilent DNA Microarray Scanner with Sure Scan technology. Data is extracted from the images produced by the scanner using Agilent's Feature Extraction software. At this point, the scanned image is visually inspected for defects, and the extracted data is statistically analyzed to ensure quality of the assay. Extracted data and images can be loaded into Rosetta Resolver Gene Expression Data Analysis System for in-depth analysis, both from a quality standpoint, as well as to develop biological understanding. […] A table was generated and provided as a tab-delimited text file. This file will contain the log ratio, fold-change, log ratio p-value, etc. for every transcript measured by the microarray. Using Rosetta Resolver, a single ratio comparison was compiled based on the results of the two fluorophore reversal hybridization performed in the context of this project. The ratios were calculated such that the Tx sample was in the numerator and the UnTx sample was in the denominator. A table was generated, saved as tab-delimited text files, and is provided on the DVD that accompanied this report in the “Objective—1” subdirectory or the “Data_Analysis” directory. These files contain the log ratio, fold-change, log ratio p-value, etc. for every transcript present on the microarray. […] A table for will be generated and provided as a tab-delimited text file. The file will contain the log ratio, fold-change, log ratio p-value, etc. for only the differentially expressed transcripts within the context of the comparison. […] These criteria were applied to the comparison made in Objective 1. A table was generated, saved as tab-delimited text files, and is provided on the DVD that accompanied this report in the “Objective—1” subdirectory or the “Data_Analysis” directory. […] Cell cultures: A human skin fibroblast cell culture (or cultures) will be obtained through the Coriell Cell Repository from the National Institute on Aging Cell Repository. […] Culture media: Cells will be grown in Minimal Essential Medium supplemented with 10% fetal bovine serum, 2 mM L-glutamine, 2 mM Glutamax I.

SMILES: COC1=C(OC)C(=O)C(CCCCCCCCCCO)=C(C)C1=O [Idebenone, 6-(10-hydroxydecyl)-2,3-dimethoxy-5-methyl-1,4-benzoquin-one]
- TFAM Expression (Idebenone + UVB): 1.1
- TPO Expression (Idebenone + UVB): 1.0
- TROAP Expression (Idebenone + UVB): −1.1
- TTN Expression (Idebenone + UVB): 1.3
- TXNRD2 Expression (Idebenone + UVB): −1.6
- UNR Expression (Idebenone + UVB): 1.4
- VEGFA Expression (Idebenone + UVB): −1.3
- AKT1 Expression (Idebenone Alone): 1.0
- ALOX12 Expression (Idebenone Alone): −1.1
- APOE Expression (Idebenone Alone): 1.0
- ARG2 Expression (Idebenone Alone): 1.0
- ATOX1 Expression (Idebenone Alone): −1.0
- CAMK1 Expression (Idebenone Alone): −1.1
- CAT Expression (Idebenone Alone): 1.2
- CCNA1 Expression (Idebenone Alone): 1.0
- CCS Expression (Idebenone Alone): −1.0
- CDKN1A Expression (Idebenone Alone): 1.4
- CYBA Expression (Idebenone Alone): 1.0
- CYGB Expression (Idebenone Alone): 1.2
- DDAH2 Expression (Idebenone Alone): 1.1
- DLG4 Expression (Idebenone Alone): 1.0
- DNCL1 Expression (Idebenone Alone): 1.0
- DND1 Expression (Idebenone Alone): 1.0
- DUOX1 Expression (Idebenone Alone): 1.0
- DUOX2 Expression (Idebenone Alone): −1.1
- DUSP1 Expression (Idebenone Alone): −1.4
- EGFR Expression (Idebenone Alone): 1.8
- EPX Expression (Idebenone Alone): −1.6
- FOXM1 Expression (Idebenone Alone): −1.0
- GCH1 Expression (Idebenone Alone): 1.0
- GCHFR Expression (Idebenone Alone): 1.0
- GLA Expression (Idebenone Alone): −1.2
- GLRX2 Expression (Idebenone Alone): 1.1
- GPR156 Expression (Idebenone Alone): 1.3
- GPX1 Expression (Idebenone Alone): 1.0
- GPX2 Expression (Idebenone Alone): 1.0
- GPX3 Expression (Idebenone Alone): 1.0
- GPX4 Expression (Idebenone Alone): −1.3
- GPX5 Expression (Idebenone Alone): 1.0
- GRIN2D Expression (Idebenone Alone): 1.0
- GSS Expression (Idebenone Alone): −1.1
- HSP90AB1 Expression (Idebenone Alone): 1.0
- IL8 Expression (Idebenone Alone): −1.2
- IL10 Expression (Idebenone Alone): 1.1
- INS Expression (Idebenone Alone): −1.0
- JUN Expression (Idebenone Alone): 1.0
- KRT1 Expression (Idebenone Alone): 1.1
- LPO Expression (Idebenone Alone): 1.1
- MBL2 Expression (Idebenone Alone): 1.0
- MPO Expression (Idebenone Alone): 1.0
- MSRA Expression (Idebenone Alone): 1.0
- MT3 Expression (Idebenone Alone): −1.1
- MTL5 Expression (Idebenone Alone): 1.5
- MYB Expression (Idebenone Alone): 1.0
- NCF1 Expression (Idebenone Alone): −1.7
- NCF2 Expression (Idebenone Alone): 1.1
- NME5 Expression (Idebenone Alone): 1.0
- NOS1 Expression (Idebenone Alone): 1.9
- NOS2A Expression (Idebenone Alone): 1.0
- NOS3 Expression (Idebenone Alone): 1.0
- NOSIP Expression (Idebenone Alone): 1.0
- NOSTRIN Expression (Idebenone Alone): 1.1
- NOX5 Expression (Idebenone Alone): 1.0
- NQO1 Expression (Idebenone Alone): −1.3
- NRF1 Expression (Idebenone Alone): −1.0
- NUDT1 Expression (Idebenone Alone): 1.3
- OXR1 Expression (Idebenone Alone): 1.0
- PGC Expression (Idebenone Alone): −1.2
- PKAR1B Expression (Idebenone Alone): 1.1
- PNKP Expression (Idebenone Alone): 1.0
- PP3CA Expression (Idebenone Alone): 1.0
- PRDX2 Expression (Idebenone Alone): −1.3
- PRDX6 Expression (Idebenone Alone): −1.1
- PREX1 Expression (Idebenone Alone): 1.0
- PRG3 Expression (Idebenone Alone): 1.0
- PRKCA Expression (Idebenone Alone): 1.0
- PRNP Expression (Idebenone Alone): −1.0
- RNF7 Expression (Idebenone Alone): 1.2
- SCARA3 Expression (Idebenone Alone): 1.1
- SCRT2 Expression (Idebenone Alone): 1.4
- SELS Expression (Idebenone Alone): 1.0
- SEPP1 Expression (Idebenone Alone): 1.2
- SGK2 Expression (Idebenone Alone): 1.2
- SIRT2 Expression (Idebenone Alone): −1.0
- SOD1 Expression (Idebenone Alone): −1.0
- SOD2 Expression (Idebenone Alone): −1.2
- SOD3 Expression (Idebenone Alone): −1.3
- SRXN1 Expression (Idebenone Alone): 1.5
- TFAM Expression (Idebenone Alone): −1.2
- TPO Expression (Idebenone Alone): 1.0
- TROAP Expression (Idebenone Alone): −1.0
- TTN Expression (Idebenone Alone): 1.0
- TXNRD2 Expression (Idebenone Alone): −1.3
- UNR Expression (Idebenone Alone): 1.0
- VEGFA Expression (Idebenone Alone): −1.7
- POT1 Expression (Human Genome Expression Values) (agent + UVB): 1.2
- RAP1 Expression (Human Genome Expression Values) (agent + UVB): −1.1
- TERT Expression (Human Genome Expression Values) (agent + UVB): −1.3
- TIN2 Expression (Human Genome Expression Values) (agent + UVB): 1.1
- TNKS2 Expression (Human Genome Expression Values) (agent + UVB): 1.1
- TNKS Expression (Human Genome Expression Values) (agent + UVB): 1.3
- TPP1 Expression (Human Genome Expression Values) (agent + UVB): 1.0
- TRF1 Expression (Human Genome Expression Values) (agent + UVB): 1.3
- TRF2 Expression (Human Genome Expression Values) (agent + UVB): −1.1
- POT1 Expression (Human Genome Expression Values) (agent Alone): −1.0
- RAP1 Expression (Human Genome Expression Values) (agent Alone): −1.1
- TERT Expression (Human Genome Expression Values) (agent Alone): 1.1
- TIN2 Expression (Human Genome Expression Values) (agent Alone): 1.1
- TNKS2 Expression (Human Genome Expression Values) (agent Alone): −1.0
- TNKS Expression (Human Genome Expression Values) (agent Alone): 1.1
- TPP1 Expression (Human Genome Expression Values) (agent Alone): −1.1
- TRF1 Expression (Human Genome Expression Values) (agent Alone): −1.0
- TRF2 Expression (Human Genome Expression Values) (agent Alone): 1.0
